“And” between values parts separate entries of the source, which are not always exact repeats. Equal entries are not always repeated.
What was measured:
[1] = Example 1 safety and tolerability (adverse events, vital signs, ECG, laboratory); type: in vivo, human
Protocol: On Day 1, study drug was initiated at a starting dose of 0.5 ng/kg/min, and dose increases occurred every 30 minutes (+5 minutes) in increments of 0.5 ng/kg/min up to 2.0 ng/kg/min or the individual tolerated dose. If dose-limiting adverse events (e.g., headache, flushing, jaw pain, myalgia, nausea, or vomiting) occurred that could not be tolerated by the subject, or if the subject experienced symptomatic hypotension, then the dose was reduced in a step-wise manner by 0.5 ng/kg/min every 30 minutes (+5 minutes) until a tolerated dose was determined or the infusion was stopped until the symptoms resolved at which point the study drug was reinitiated at a previously tolerated dose. If symptomatic hypotension or a dose-limiting adverse event occurred during administration of iloprost at the starting dose (i.e., 0.5 ng/kg/min), the infusion was reduced to 0.25 ng/kg/min. If the dose of 0.25 ng/kg/min was not tolerated due to symptomatic hypotension or if a dose-limiting adverse event occurred, the study drug was discontinued, and re-initiation of the infusion could have been attempted after the event had resolved or had been treated. Blood pressure and heart rate were monitored 15 minutes (+5 minutes) prior to and after all dose changes. The maximum tolerated dose was maintained for the remaining 6-hour daily period. At the end of the 6-hour infusion period, the dose was stopped. Subjects were to be monitored for up to 1 hour after completion of study drug infusion (i.e., vital signs were obtained 15 minutes [±5 minutes] and 1 hour [±15 minutes] after completion of the infusion).
Vital signs were measured prior to study drug administration and at 15 minutes (±5 minutes) prior to and after all dose changes during the infusion. Additionally, vital signs were monitored at 15 minutes (±5 minutes) and 1 hour (±15 minutes) after completion of the 6-hour infusion.
Safety parameters included adverse events, physical examination findings, vital sign measurements (heart rate and blood pressure), 12-lead electrocardiogram (ECG) findings, and standard clinical laboratory measurements (chemistry and hematology).

[2] = Example 3 solution stability of fully diluted ready-to-use iloprost in IV bags (HPLC); type: physicochemical
Protocol: Iloprost 100 μg/mL injection product is administered to patients by IV bag infusion over a period of six hours. The fully diluted ready to use iloprost is prepared in pharmacy cleanroom using sterile preparation standards (USP Chapter <797>) by pharmacy trained and licensed staff. The fully diluted ready to use drug product may be prepared several hours ahead of treatment with storage at ambient conditions or several days ahead of treatment with storage at refrigerated (2-8° C.) conditions. The IV bags are prepared using empty sterile IV bags which are filled with 99 mL of 0.9% NaCl and 1.0 mL of iloprost 100 µg/mL injection product. The bags are then manually mixed gently to provide a uniform solution. […] IV Bag Sample Preparation: Two 50 mL syringes with 18-gauge needles were assembled. 1.0 mL syringe with 18-gauge needle was assembled. Using a 50 mL syringe, 50 mL of 0.9% NaCl was transferred into an empty IV bag (sterile, ICU Medical) using the injection port. Using a second 50 mL syringe, 49 mL of 0.9% NaCl was transferred into the same IV bag using the injection port resulting in 99 mL of solution. Using the 1 ml syringe, 1.0 mL of iloprost 100 μg/mL injection product was transferred into the IV bag using the injection port. The needle was removed and the port was securely closed. The IV bag was gently inverted several times to mix. During inversion, it was occasionally paused to squeeze the injection port area to ensure liquid rinsed into area several times. Sampling Procedure: For sampling, a 3 mL syringe was assembled with an 18-gauge needle. Using a 3 ml syringe, 2 mL of IV bag solution was withdrew through the injection port and 1 mL was transferred to a HPLC vial for neat injection and the other 1 ml was transferred to a back-up HPLC vial. HPLC vials were stored at refrigerated conditions 2-8° C. Sample Storage and Sampling: For each testing conditions (i-iv discussed above), 12 IV bag samples were prepared (6 IV bags for condition ia)-see below for sampling time). For condition i), all 12 IV bags were then placed into 25° C./60% RH stability chamber ensuring each bag is resting on its largest surface area side. After the first time point, the IV bags were removed from the chamber and each IV bag was mixed by inversion several times. Sampling from each IV bag was taken for HPLC analysis. After sampling, the IV bags were placed back into 25° C./60% RH stability chamber ensuring each bag is resting on its largest surface area side, until next sampling time. At each sampling time, the IV bags were removed from the chamber and each IV bag was mixed by inversion several times before samples were removed. For conditions ii) and iii), all 12 IV bags for each testing condition was placed into a 2-8° C. stability chamber ensuring each bag is resting on its largest surface area side. After 5 days have passed for condition ii) or after 8 days have passed for condition iii), the IV bags were removed from the chamber and allowed to equilibrate to room temperature. Each IV bag was mixed by inversion several times. Sampling from each IV bag was taken for HPLC analysis. Then the IV bags were placed in the 25° C./60% RH stability chamber and sampled at certain time points as discussed herein. […]

[3] = Table 8A, IV bag 25° C./60% RH, 2 h
[4] = Table 8A, IV bag 25° C./60% RH, 4 h
[5] = Table 8A, IV bag 25° C./60% RH, 6 h
[6] = Table 8A, IV bag 25° C./60% RH, 8 h
[7] = Table 8A, IV bag 25° C./60% RH, 24 h
[8] = Table 8B, Batch 1, 25° C./60% RH, 8 hr
[9] = Table 8B, Batch 1, 25° C./60% RH, 12 hr
[10] = Table 8B, Batch 1, 25° C./60% RH, 48 hr
[11] = Table 8B, Batch 1, 25° C./60% RH, 96 hr
[12] = Table 8C, Batch 2, 25° C./60% RH, 8 hr
[13] = Table 8C, Batch 2, 25° C./60% RH, 12 hr
[14] = Table 8C, Batch 2, 25° C./60% RH, 48 hr
[15] = Table 8C, Batch 2, 25° C./60% RH, 96 hr
[16] = Table 8D, Batch 1, 5° C. for 5 days
[17] = Table 8D, Batch 1, 5° C. for 5 days, 25° C./60% RH for 8 hr
[18] = Table 8D, Batch 1, 5° C. for 5 days, 25° C./60% RH for 12 hr
[19] = Table 8E, Batch 2, 5° C. for 5 days
[20] = Table 8E, Batch 2, 5° C. for 5 days, 25° C./60% RH for 8 hr
[21] = Table 8E, Batch 2, 5° C. for 5 days, 25° C./60% for 12 hr

CC#CCC(C)[C@H](O)/C=C/[C@@H]1[C@H]2C/C(=C/CCCC(=O)O)C[C@H]2C[C@H]1O (stereo partly drawn) [Iloprost, (5E)-5-[(3aS,4R,5R,6aS)-5-hydroxy-4-[(E,3S)-3-hydroxy-4-methyloct-1-en-6-ynyl]-3,3a,4,5,6,6a-hexahydro-1H-pentalen-2-ylidene]pentanoic acid]
TEAE abdominal pain ([1]; human, in vivo, 5 days): 4 [23.5%] subjects (%) | TEAE flushing ([1]; human, in vivo, 5 days): 5 [29.4%] subjects (%) | TEAE headache ([1]; human, in vivo, 5 days): 16 [94.1%] subjects (%) | TEAE nausea ([1]; human, in vivo, 5 days): 11 [64.7%] subjects (%) | subjects who experienced TEAEs considered severe by the Investigator ([1]; human, in vivo, 5 days): Two (11.8%) subjects (%) | subjects who experienced a TEAE ([1]; human, in vivo, 5 days): 17 (100.0%) subjects (%) | TEAEs related to vital signs, physical examination findings, or ECGs ([1]; in vivo): no TEAEs | bradycardia or tachycardia ([1]; in vivo): no bradycardia or tachycardia | changes in chemistry or hematology laboratory values ([1]; in vivo): no clinically significant changes | hypertensive or hypotensive events ([1]; in vivo): no hypertensive or hypotensive events | deaths, SAEs, AESIs, TEAEs leading to study drug discontinuation ([1]; whole study): no deaths, SAEs, AESIs, or TEAEs leading to study drug discontinuation | % Initial [2, 3]: 100.8% and 99.4% and 100.2% and 99.7% and 100.5% and 100.4% | Iloprost (%) [2, 3]: 95.0% and 94.2% and 94.8% and 94.7% and 95.3% | % Initial [2, 4]: 101.0% and 99.5% and 99.6% and 100.3% and 101.3% and 101.9% | Iloprost (%) [2, 4]: 95.2% and 94.3% and 94.7% and 95.5% and 96.7% | % Initial [2, 5]: 101.6% and 100.2% and 100.5% and 99.3% and 101.7% and 100.6% | Iloprost (%) [2, 5]: 95.7% and 95.0% and 95.1% and 93.7% and 95.9% and 95.4% | % Initial [2, 6]: 100.0% and 101.9% and 101.1% and 99.9% | Iloprost (%) [2, 6]: 94.3% and 94.8% and 94.6% and 96.2% and 95.3% | % Initial [2, 7]: 102.2% and 101.4% and 102.0% and 100.1% and 98.9% and 100.5% | Iloprost (%) [2, 7]: 97.0% and 95.5% and 96.7% and 94.7% and 93.4% and 94.8% | Iloprost (%) ([2]; Table 8A, IV bag, 1.0 mL 100 μg/mL product + 99 mL 0.9% NaCl, Initial, Samples 1-6): 94.2% and 94.8% and 94.6% and 94.4% and 94.3% and 94.9% | % Initial [2, 8]: 100% and 104% and 101% and 103% | Iloprost [2, 8]: 973.6 ng/mL and 1010 ng/mL and 979.5 ng/mL and 1003 ng/mL and 977.2 ng/mL and 1007 ng/mL | % Initial [2, 9]: 103% and 104% and 105% and 99% | Iloprost [2, 9]: 1004 ng/mL and 1009 ng/mL and 978.2 ng/mL and 1042 ng/mL and 975.1 ng/mL and 1005 ng/mL | % Initial [2, 10]: 103% and 101% and 100% | Iloprost [2, 10]: 1004 ng/mL and 995.2 ng/mL and 968 ng/mL and 1001 ng/mL and 984.6 ng/mL and 977.3 ng/mL | % Initial [2, 11]: 104% and 105% and 103% and 102% and 101% and 100% | Iloprost [2, 11]: 1013 ng/mL and 1017 ng/mL and 970.9 ng/mL and 1014 ng/mL and 994.1 ng/mL and 971.5 ng/mL | Iloprost ([2]; Table 8B, Batch 1, IV bag, Initial (T = 0), Preparations 1-6): 975.8 ng/mL and 977.5 ng/mL and 968.7 ng/mL and 942.8 ng/mL and 994.1 ng/mL and 981.9 ng/mL | % Initial [2, 12]: 102% and 101% and 100% and 96% | Iloprost [2, 12]: 995.8 ng/mL and 1002 ng/mL and 994.6 ng/mL and 1004 ng/mL and 998.8 ng/mL and 983.3 ng/mL | % Initial [2, 13]: 101% and 99% and 100% and 98% | Iloprost [2, 13]: 993.3 ng/mL and 984.1 ng/mL (2×) and 989.6 ng/mL and 994.8 ng/mL and 1005 ng/mL | % Initial [2, 14]: 101% and 99% and 104% and 100% | Iloprost [2, 14]: 993.7 ng/mL and 984.2 ng/mL and 994.4 ng/mL and 1032 ng/mL and 1005 ng/mL and 1015 ng/mL | % Initial [2, 15]: 102% and 99% and 101% and 100% | Iloprost [2, 15]: 1002 ng/mL and 979.5 ng/mL and 989 ng/mL and 1005 ng/mL and 996.3 ng/mL and 1027 ng/mL | Iloprost ([2]; Table 8C, Batch 2, IV bag, Initial (T = 0), Preparations 1-6): 1021 ng/mL and 980.9 ng/mL and 990.7 ng/mL and 980.7 ng/mL and 994.4 ng/mL and 1001 ng/mL | % Initial [2, 16]: 104% and 98% and 101% and 100% and 99% | Iloprost [2, 16]: 1050 ng/mL and 931.9 ng/mL and 1024 ng/mL (2×) and 1020 ng/mL and 1001 ng/mL | % Initial [2, 17]: 99% and 100% and 98% and 102% and 101% | Iloprost [2, 17]: 1002 ng/mL and 957.3 ng/mL and 993.8 ng/mL and 1040 ng/mL and 1025 ng/mL and 1011 ng/mL | % Initial [2, 18]: 97% and 99% and 100% and 101% | Iloprost [2, 18]: 976.5 ng/mL and 943.2 ng/mL and 1015 ng/mL and 1031 ng/mL and 1010 ng/mL and 982.7 ng/mL | Iloprost ([2]; Table 8D, Batch 1, IV bag, Initial (T = 0)): 996.6 ng/mL and 1007 ng/mL and 953.6 ng/mL and 1015 ng/mL and 1020 ng/mL and 1036 ng/mL | % Initial [2, 19]: 102% and 100% and 101% | Iloprost [2, 19]: 1026 ng/mL and 1009 ng/mL and 1025 ng/mL and 1030 ng/mL and 1011 ng/mL and 987.4 ng/mL | % Initial [2, 20]: 101% and 99% and 100% and 98% | Iloprost [2, 20]: 1023 ng/mL and 973.1 ng/mL and 1013 ng/mL and 1012 ng/mL and 996.7 ng/mL and 970.8 ng/mL | % Initial [2, 21]: 101% and 98% and 102% and 100% | Iloprost [2, 21]: 1022 ng/mL and 963.3 ng/mL and 1001 ng/mL | Iloprost ([2]; Table 8E, Batch 2, IV bag, Initial (T = 0)): 988.4 ng/mL | % Initial ([2]; Table 8F (5° C. for 8 days to 25° C./60% RH), Batch 1, time point 5° C. for 5 days [sic]): 103% and 99% and 102% and 100% | % Initial ([2]; Table 8F, Batch 1, 5° C. for 8 days, 25° C./60% RH for 8 hr): 99% and 98% and 107% and 100% | % Initial ([2]; Table 8F, Batch 1, 5° C. for 8 days, 25° C./60% RH for 12 hr): 101% and 100% and 99% | % Initial ([2]; Table 8G (5° C. for 8 days to 25° C./60% RH), Batch 2, time point 5° C. for 5 days [sic]): 99% and 97% and 102%
